In US20170029355A1, “LABILE ESTERS OF AGROCHEMICALS FOR CONTROLLED RELEASE AND REDUCTION OF OFF-SITE MOVEMENT” (Monsanto Technology LLC, priority 2011, published 2017):
Read-outs that look alike come from different tables or passages of the source.

How the values were obtained:
velvetleaf [1] = test: Greenhouse post-emergent control of velvetleaf by emulsifiable concentrates (Example 37); assay type: in vivo; settings: for pest or weed control at 140 g/ha / pest or weed control at 280 g/ha / pest or weed control at 420 g/ha / pest or weed control at 560 g/ha: Abutilon theophrasti, post-emergence, 504 h; for pest or weed control at 140 g/ha: read-out: % Control of velvetleaf, 140 g/ha; for pest or weed control at 280 g/ha: read-out: % Control of velvetleaf, 280 g/ha; for pest or weed control at 420 g/ha: read-out: % Control of velvetleaf, 420 g/ha; for pest or weed control at 560 g/ha: read-out: % Control of velvetleaf, 560 g/ha
Summary of the method: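 Photo-labile dicamba ester emulsifiable concentrates sprayed post-emergence in the greenhouse on velvetleaf 10-15 cm tall at 140, 280, 420 and 560 g dicamba equivalent per hectare. Percent control scored three weeks after treatment.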

[2] = system: three broadleaf weeds: velvetleaf, morning glory, and hemp sesbania; test: Field testing of Example 40, overall post-emergent activity in words; assay type: in vivo; settings: 280 and 560 g dicamba acid equivalent per hectare
Protocol: (§1) Three dicamba esters, 30a, 32a, and 36a, were formulated as emulsifiable concentrates for field testing. All surfactants are commercial materials from Stepan.
(§2) The formulations were tested in the field. Locations and timing were identical for the three esters, but differed slightly for the diglycolamine control. The esters were compared to the diglycolamine salt of dicamba (CLARITY™) for post-emergent control of three broadleaf weeds: velvetleaf, morning glory, and hemp sesbania. Rates of 280 and 560 g dicamba acid equivalent per hectare were used.

broadleaf weeds = test: Control of broadleaf weeds by ester concentrates (statements of the description); assay type: in vivo; settings: emulsifiable and suspension concentrates; Sesbania macrocarpa, morning glory, velvetleaf, Palmer amaranth, fat hen, sicklepod
[3] = In vitro photo-release and hydrolytic release of dicamba in an aqueous medium (Example 35); assay type: physicochemical; settings: 0.01 mM ester, 35° C.
Protocol: This Example describes the determination of photo-lability and hydrolytic lability of dicamba esters in an aqueous medium. 1 mM solutions of the esters were prepared in acetonitrile (or […] solutions of dicamba diesters). The solutions were then diluted with deionized water to a concentration of 0.01 mM (or 0.005 mM for diesters). The solutions were then transferred to quartz tubes and amber bottles and held in a growth chamber by the procedure of Example 26. A 14-hour day was generally used at a constant temperature of 35° C. Hydrolytic activity was assessed by measuring the increase in dicamba concentration after day zero in the amber (dark) bottles. […] Photolysis manifested itself as increased conversion in the quartz tubes compared to the dark control.

morning glory = test: Field testing of emulsifiable concentrates, post-emergent control (Example 40); assay type: in vivo; settings: for % control 19 days after treatment, 280 g/ha, Morning glory: 280 g dicamba acid equivalent per hectare; for % control 19 days after treatment, 560 g/ha, Morning glory: 560 g dicamba acid equivalent per hectare
Protocol: as §1, §2

hemp sesbania = test: as above; assay type: in vivo; settings: for % control 19 days after treatment, 280 g/ha, Hemp sesbania: 280 g dicamba acid equivalent per hectare; for % control 19 days after treatment, 560 g/ha, Hemp sesbania: 560 g dicamba acid equivalent per hectare
Protocol: as §1, §2

velvetleaf [4] = test: as above; assay type: in vivo; settings: for % control 19 days after treatment, 280 g/ha, Velvetleaf: 280 g dicamba acid equivalent per hectare; for % control 19 days after treatment, 560 g/ha, Velvetleaf: 560 g dicamba acid equivalent per hectare
Protocol: as §1, §2

soybeans = test: Humidome volatility injury, ester 32a emulsifiable concentrate (Example 32); settings: humidome, dicamba 0.6% and glyphosate 1.2% acid equivalent, 14 days after treatment
Text: […] The mixtures were sprayed at a 10 gallon per acre (93.5 liters per hectare) rate on soil in a plastic container (“humidome”) with a transparent lid. One soil container was sprayed with water as a control. Four glyphosate-tolerant, dicamba-sensitive soy plants between V2 and V3 stage were immediately placed on the sprayed soil and the domes attached to the trays with binder clips. The soy plants were in pots placed directly on the soil but with aluminum foil wrapped around the bottom to prevent uptake of dicamba or dicamba esters through the roots.
The closed containers were held for 24 hours in a growth chamber which was maintained at 35° C. with 40% relative humidity. […] At this time plant injury and growth stage were assessed compared to the control treated with water only.

SMILES	post-emergent activity compared with the dicamba salt, in words [2]	control of a number of broadleaf weeds in field testing, in words (broadleaf weeds)	Conversion to Dicamba, Dark, Day 0 ([3]; amber (dark) bottle) [%]	Conversion to Dicamba, Dark, Day 3 ([3]; amber (dark) bottle) [%]	Conversion to Dicamba, Dark, Day 14 ([3]; amber (dark) bottle) [%]	Conversion to Dicamba, Dark, Day 21 ([3]; amber (dark) bottle) [%]	Conversion to Dicamba, Dark, Day 28 ([3]; amber (dark) bottle) [%]	Conversion to Dicamba, Light, Day 0 ([3]; quartz tube, 14-hour day) [%]	Conversion to Dicamba, Light, Day 3 ([3]; quartz tube, 14-hour day) [%]	Conversion to Dicamba, Light, Day 14 ([3]; quartz tube, 14-hour day) [%]	Conversion to Dicamba, Light, Day 21 ([3]; quartz tube, 14-hour day) [%]	Conversion to Dicamba, Light, Day 28 ([3]; quartz tube, 14-hour day) [%]	% control 19 days after treatment, 280 g/ha, Morning glory (morning glory) [%]	% control 19 days after treatment, 560 g/ha, Morning glory (morning glory) [%]	% control 19 days after treatment, 280 g/ha, Hemp sesbania (hemp sesbania) [%]	% control 19 days after treatment, 560 g/ha, Hemp sesbania (hemp sesbania) [%]	% control 19 days after treatment, 280 g/ha, Velvetleaf (velvetleaf [4]) [%]	% control 19 days after treatment, 560 g/ha, Velvetleaf (velvetleaf [4]) [%]	also measured
COc1ccc(OC(=O)c2c(Cl)ccc(Cl)c2OC)cc1 [Ester 30a, 4-methoxyphenyl ester of dicamba]	less efficacious	proven effective	6	5	17	17	19	6	14	23	29	36	79 ± 7	78 ± 10	50 ± 20	67 ± 13	56 ± 25	65 ± 25	pest or weed control at 140 g/ha (velvetleaf [1]; greenhouse, 140 g/ha, Example 37): 19.2%; pest or weed control at 280 g/ha (velvetleaf [1]; greenhouse, 280 g/ha, Example 37): 12.5%; pest or weed control at 420 g/ha (velvetleaf [1]; greenhouse, 420 g/ha, Example 37): 18.3%; pest or weed control at 560 g/ha (velvetleaf [1]; greenhouse, 560 g/ha, Example 37): 15%
COc1c(Cl)ccc(Cl)c1C(=O)Oc1ccc(=O)n(CCC(C)=O)n1 [Ester 32a]	intermediate activity	proven effective	5	17	41	55	70	5	18	44	50	59	70 ± 24	87 ± 10	76 ± 5	91 ± 8	59 ± 28	68 ± 26	pest or weed control at 140 g/ha (velvetleaf [1]): 12.5%; pest or weed control at 280 g/ha (velvetleaf [1]): 19.2%; pest or weed control at 420 g/ha (velvetleaf [1]): 33.3%; pest or weed control at 560 g/ha (velvetleaf [1]): 37.5%; post-emergent efficacy on velvetleaf compared with the salt, in words (velvetleaf [1]; greenhouse, emulsifiable concentrates): reduced post-emergent efficacy; Conversion to Dicamba, Dark, Day 1 ([3]; amber (dark) bottle, Day 1): 12%; Conversion to Dicamba, Dark, Day 2 ([3]; amber (dark) bottle, Day 2): 14%; Conversion to Dicamba, Dark, Day 4 ([3]; amber (dark) bottle, Day 4): 22%; Conversion to Dicamba, Dark, Day 7 ([3]; amber (dark) bottle, Day 7): 34%; Conversion to Dicamba, Light, Day 1 ([3]; quartz tube, 14-hour day, Day 1): 14%; Conversion to Dicamba, Light, Day 2 ([3]; quartz tube, 14-hour day, Day 2): 16%; Conversion to Dicamba, Light, Day 4 ([3]; quartz tube, 14-hour day, Day 4): 22%; Conversion to Dicamba, Light, Day 7 ([3]; quartz tube, 14-hour day, Day 7): 27%; average injury to soybeans (soybeans): 19%
